These results are taken from ChEMBL document CHEMBL4699469, “Recent Developments in the Biology and Medicinal Chemistry of CDK9 Inhibitors: An Update” (J Med Chem, 2020).

Data set [1] deals with MOLM-13. The experiment in a line: Antiproliferative activity against human MOLM-13 cells incubated for 72 hrs by Cell Titre-Glo luminescent assay. The data set is classed as functional, cell-based. The note with it: MOLM-13, 72 h.
The test system of data set [2] is A2780. Kind of data set: Antiproliferative activity against human A2780 cells incubated for […] by crystal violet staining based assay. Type of data set: functional, cell-based.
The target in data set [3] is Cyclin-dependent kinase 4 (Homo sapiens, UniProt P11802). The experiment in a line: Inhibition of CDK4 (unknown origin) using Ulight-labeled substrate by TR-FRET LANCE method.
The target in data set [4] is Cyclin-dependent kinase 6 (Homo sapiens, UniProt Q00534). Kind of data set: Inhibition of CDK6 (unknown origin) using Ulight-labeled substrate by TR-FRET LANCE method.
For data set [5], the target named is T1, Cyclin-dependent kinase 1 (Homo sapiens, UniProt P06493). The experiment in a line: Inhibition of CDK1 (unknown origin) using Ulight-labeled substrate by TR-FRET LANCE method.
For data set [6], the target named is T2, Cyclin-dependent kinase 2 (Homo sapiens, UniProt P24941). Kind of data set: Inhibition of CDK2 (unknown origin) using Ulight-labeled substrate by TR-FRET LANCE method.
The target in data set [7] is T3, Cyclin-dependent kinase 7 (Homo sapiens, UniProt P50613). Kind of data set: Inhibition of CDK7 (unknown origin) using Ulight-labeled substrate by TR-FRET LANCE method.
Data set [8] has as its target Cyclin-dependent kinase 8 (Homo sapiens, UniProt P49336). Kind of data set: Inhibition of CDK8 (unknown origin) by TR-FRET assay.
Data set [9] in a line: Plasma clearance in Sprague-Dawley rat at 1 mg/kg, iv measured after 24 hrs by reverse phase HPLC analysis. Type of data set: ADME, organism-based.
Data set [10] has as its system NCI-H929. The experiment in a line: cells. The note with it: Homo sapiens, NCI-H929, 24 h.
Data set [11] has as its system MV4-11. The experiment in a line: cells. The note with it: Homo sapiens, MV4-11, 24 h.
Data set [12] deals with T4, CDK9/cyclin T1 (Homo sapiens, UniProt P50750). The experiment in a line: Inhibition of His-tagged human CDK9/cyclin T1 expressed in insect cells using biotinylated-cdk7tide peptide incubated for 5 hrs by Alpha Screen assay.
Data set [13] addresses T4, CDK9/cyclin T1. Kind of data set: Displacement of Alexa Fluor 647 ADP Tracer from His-tagged human CDK9/Cyclin T1 expressed in baculovirus expression system incubated for 1 hr by adapta assay.
Data set [14] concerns the target CDK7/Cyclin H/MNAT1 (Homo sapiens, UniProt P50613). The experiment in a line: Displacement of Alexa Fluor 647 ADP Tracer from human CDK7/CyclinH/MAT1 expressed in baculovirus expression system incubated for 1 hr by adapta assay.
The test system of data set [15] is MOLT-4. The experiment in a line: Antiproliferative activity against human MOLT4 cells incubated for 72 hrs by cell titer glo assay. Type of data set: functional, cell-based. As to conditions: MOLT-4, 72 h.
The target of data set [16] is T4, CDK9/cyclin T1. Kind of data set: Inhibition of human CDK9 (1 to 372 residues)/N-terminal GST-fused His-tagged CyclinT1 (1 to 726 residues) expressed in baculovirus expression system incubated for 0.5 to 1 hr by TR-FRET assay.
Data set [17] addresses Cyclin-dependent kinase 2/cyclin E1 (Homo sapiens, UniProt P24941). The experiment in a line: Inhibition of His-tagged human CDK2/cyclin E1 expressed in insect cells using biotin Ttds-YISPLKSPYKISEG as substrate preincubated for 15 mins followed by ATP and substrate addition and measured after 25 mins by TR-FRET assay.
Data set [18] concerns the target Glycogen synthase kinase-3 beta (Homo sapiens, UniProt P49841). The experiment in a line: Inhibition of human GSK3beta.
Data set [19] in a line: Thermodynamic solubility of the compound at pH 6.5 incubated for 24 hrs by equilibrium shake flask. The data set is classed as physicochemical. The note with it: buffer, read-out: Therm_solubility.
Data set [20] has as its target Glycogen synthase kinase-3 alpha (Homo sapiens, UniProt P49840). Kind of data set: Inhibition of human GSK3alpha.
Data set [21] can be described thus: Oral bioavailability in Wistar rats at 0.6 to 1 mg/kg measured up to 24 hrs by LC-MS/MS analysis. As to conditions: rat, in vivo, dose 0.6-1 mg/kg. The data set is classed as ADME, organism-based.
Data set [22] has as its target CDK3/Cyclin E (Homo sapiens, UniProt Q00526). Kind of data set: Inhibition of C-terminal His6-tagged human CDK3/N-terminal GST-tagged human cyclin E expressed in baculovirus infected Sf21 insect cells.
Data set [23] addresses T3, Cyclin-dependent kinase 7. Kind of data set: Binding affinity to wild-type human full length CDK7 (M1 to L344 residues) expressed in mammalian expression system by Kinomescan method.
Data set [24] addresses T5, Cyclin-dependent kinase 9 (Homo sapiens, UniProt P50750). Kind of data set: Binding affinity to wild-type human full length CDK9 (M1 to F372 residues) expressed in bacterial expression system by Kinomescan method.
For data set [25], the system named is MOLM-13. Kind of data set: Antiproliferative activity against human MOLM-13 cells. Type of data set: functional, cell-based.
For data set [26], the target named is T5, Cyclin-dependent kinase 9.
Data set [27] can be described thus: Solubility of the compound at pH 6.8. The data set is classed as physicochemical. The note with it: buffer.
Data set [28] is described as follows: Solubility of the compound at pH 8.7. The data set is classed as physicochemical. The note with it: buffer.
Data set [29] is described as follows: Oral bioavailability in mouse. Type of data set: ADME, organism-based. The note with it: in vivo.
Data set [30] relates to MV4-11. Kind of data set: Antitumor activity against human MV4-11 cells xenografted in mouse assessed as tumor growth inhibition at 7.5 mg/kg relative to control. The data set is classed as functional. As to conditions: read-out: TGI.
The test system of data set [31] is OPM-2. The experiment in a line: Growth inhibition of human OPM-2 cells incubated for 24 hrs. Type of data set: functional.
For data set [32], the target named is T1, Cyclin-dependent kinase 1. The experiment in a line: Inhibition of CDK1 in human MCF7 cells assessed as reduction in PP1alpha phosphorylation at T320 residue incubated for 6 hrs by immunoblot analysis. The data set is classed as cell-based.
Data set [33] concerns the target T2, Cyclin-dependent kinase 2. The experiment in a line: Inhibition of CDK2 in human MCF7 cells assessed as reduction in Rb phosphorylation at T821 residue incubated for 6 hrs by immunoblot analysis. The data set is classed as cell-based.
Data set [34] concerns the target Cyclin-dependent kinase 4/6 (Homo sapiens, UniProt P11802+Q00534). Kind of data set: Inhibition of CDK4/6 in human MCF7 cells assessed as reduction in Rb phosphorylation at S807/811 residue incubated for 6 hrs by immunoblot analysis. Type of data set: cell-based.
Data set [35] concerns the target T3, Cyclin-dependent kinase 7. Kind of data set: Inhibition of CDK7 in human MCF7 cells assessed as RNA polymerase2 phosphorylation at serine 5 residue residue incubated for 6 hrs by immunoblot analysis. The data set is classed as cell-based.
Data set [36] in a line: Half life in rat. As to conditions: in vivo. The data set is classed as ADME.
Data set [37] is described as follows: Half life in dog. The data set is classed as ADME, Canis lupus familiaris. As to conditions: in vivo.
The nature of data set [38]: Half life in monkey. Type of data set: ADME, Macaca mulatta. As to conditions: rhesus monkey, in vivo.

≈ marks a conversion by molar mass, not a printed value.

As for `Cc1cc(CS(C)(=O)=O)cc(Nc2ncc(F)c(-c3ccc(F)c4ccoc34)n2)c1`, the 50% inhibitory concentration (IC50) in data set [1] was 46 nM; in [2] it was 38 nM.
As to `COc1ccc(F)cc1-c1c(F)cnc2[nH]c(C3=CCN([C@H]4CC[C@H](C(=O)O)CC4)CC3)cc12`, the IC50 in [3] was 162 nM; in data set [4], 101 nM; in [5], > 320 nM; in data set [6], > 320 nM; in data set [7] it was > 320 nM; in [8], > 320 nM. Further, the IC50 was 40 nM in data set [10] and 138 nM in [11]. The clearance in data set [9] is 10.5 mL/min/kg.
Consider `O=C(Nc1cc(-c2cccc(NCc3cccc(F)c3)n2)c(Cl)cn1)[C@H]1CNCCO1`, for which the IC50 in data set [12] is < 8 nM.
Consider `COC[C@H](C)N[C@H]1CC[C@H](Nc2cc(-c3cccc(NCC4(C#N)CCOCC4)n3)c(Cl)cn2)CC1`, for which the results for the IC50 in data set [13], in [14] and in [15] were < 0.5 nM, > 10000 nM and 9 nM, respectively.
With `COc1ccc(F)cc1-c1ncnc2[nH]c(C3CCNCC3)cc12`, half-maximal inhibition in data set [16] (IC50) was put at 13 nM.
On to `COc1cc(F)ccc1-c1ncnc(Nc2cccc(CCS(C)(=O)=O)c2)n1`, for which 558 nM corresponded to half-maximal inhibition in data set [17] (IC50).
For the compound `COc1cc(F)ccc1-c1ncnc(Nc2cccc(C[S@](C)(=N)=O)c2)n1` [ATUVECICLIB], the IC50 was 87 nM in data set [18], 45 nM in [20] and > 890 nM in data set [22]. Also, the solubility thermodynamic at 24 h in data set [19] is 479 µg/mL (≈ 1.24 mM). Further, in data set [21], the bioavailability turned out to be 54%.
In [15], `CC(C)(C)c1cnc(CSc2cnc(NC(=O)C3CCNCC3)s2)o1` [BMS-387032] had an IC50 of 173 nM.
For `Cn1ncc(-c2nc(N[C@H]3CC[C@H](N)CC3)ncc2Cl)c1CC1CC1` [BTX-A51], the Kd in data set [23] was 1.3 nM; in [24], 4 nM.
As for `COc1cc(F)ccc1-c1cc(Nc2cc(CS(C)(=N)=O)ccn2)ncc1F` (centres undefined) [ENITOCICLIB], the half-inhibitory concentration (IC50) in data set [25] amounted to 29 nM.
On to `CN1CC[C@H](c2c(OP(=O)(O)O)cc(O)c3c(=O)cc(-c4ccccc4Cl)oc23)[C@H](O)C1` [TP-1287], for which inhibition in data set [26] was half-maximal at 84 nM (IC50). Besides, the figures for the solubility in data set [27] and in [28] were 9500 µg/mL (≈ 19.7 mM) and 9300 µg/mL (≈ 19.3 mM), respectively. Moreover, the F in data set [29] is reported as 182.3%. In addition, the inhibition in vivo at 7.5 mg/kg in data set [30] amounted to 109%.
In data set [31], `CC(=O)N[C@@H]1CCC[C@H](C(=O)Nc2cc(-c3cnn4c3CC(C)(C)C4)c(Cl)cn2)C1` [ZEMIRCICLIB] yielded a GI50 of 23 nM. Also, the IC50 in data set [32] is 370 nM; in [33], > 10000 nM; in [34], > 10000 nM; in [35] it was 1100 nM. Besides, the half-life in data set [36], in [37] and in data set [38] was < 1 h each time.
